Test results published in patent US9302999B2, “Substituted triazoles as herbicides” (E. I. DU PONT DE NEMOURS AND COMPANY, priority 2012, dated 2016).
Like-named read-outs stand apart in the source and are kept apart here.

How the values were obtained:
Type in all cases: in vivo
[1] = tested on: corn (Zea mays); assay: Test A pre-/postemergence: corn
Procedure, shortened: (§1)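 Whole-plant greenhouse assay in loam/sand. Preemergence directed soil spray plus simultaneous postemergence spray (one- to two-leaf stage, 2–10 cm). Rated visually ~10 days later, 0 = no effect, 100 = complete control.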

[2] = tested on: rice (Oryza sativa); assay: Test B flooded paddy: rice; conditions: Flood; 250 g ai/ha; applied to paddy water at 2-leaf stage; visually evaluated after 13 to 15 days
Procedure, shortened: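 At two leaves, seedlings received the test compound via the paddy water, pots having been flooded 3 cm over the soil surface and kept so. Greenhouse-held for 13 to 15 days, then judged by eye against controls on a scale running 0 (no effect) to 100 (complete control).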

[3] = tested on: velvetleaf (Abutilon theophrasti); assay: Test A pre-/postemergence: velvetleaf; conditions: for pest or weed control at 125 g/ha / pest or weed control at 500 g/ha: Abutilon theophrasti, 240 h
Procedure, shortened: as §1

[4] = tested on: barnyardgrass (Echinochloa crus-galli); assay: Test A pre-/postemergence: barnyardgrass; conditions: for pest or weed control at 125 g/ha / pest or weed control at 500 g/ha: Echinochloa crus-galli, 240 h
Procedure, shortened: as §1

[5] = tested on: blackgrass (Alopecurus myosuroides); assay: Test C pre-/postemergence: blackgrass
Procedure, shortened: (§2)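 Visual injury scored 0–100 (100 = complete control) against untreated controls after 13–15 greenhouse days. Surfactant-containing solvent formulations applied either to soil after sowing (loam/sand) or over 1- to 4-leaf plants, 2–18 cm tall.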

[6] = tested on: pigweed (Amaranthus retroflexus); assay: Test C pre-/postemergence: pigweed
Procedure, shortened: as §2

[7] = tested on: wild oat (Avena fatua); assay: Test C pre-/postemergence: wild oat
Procedure, shortened: as §2

[8] = tested on: johnsongrass (Sorghum halepense); assay: Test C pre-/postemergence: johnsongrass
Procedure, shortened: as §2

[9] = tested on: chickweed (common chickweed, Stellaria media); assay: Test C postemergence: chickweed
Procedure, shortened: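 Visual ratings of 0 (no effect) to 100 (complete control) were made against controls 13-15 days after a postemergence spray, with plants kept in a greenhouse. Plants were 2-18 cm tall (1- to 4-leaf stage) in Redi-Earth peat/vermiculite medium at treatment.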

[10] = tested on: winter wheat (Triticum aestivum); assay: Test C pre-/postemergence: winter wheat
Procedure, shortened: as §2

[11] = Postemergence, 1000 g ai/ha, visual rating on 0 to 100 scale (0 no effect, 100 complete control), approximately ten days
[12] = Preemergence, 1000 g ai/ha, 0 to 100 scale, 0 is no effect, 100 is complete control
[13] = Postemergence, 31 g ai/ha, scale 0 to 100 (0 no effect, 100 complete control)
[14] = Postemergence, 62 g ai/ha, scale 0 to 100 (0 no effect, 100 complete control)
[15] = Postemergence, 125 g ai/ha, scale 0 to 100, 0 no effect, 100 complete control
[16] = Postemergence, 250 g ai/ha, scale 0 to 100
[17] = Preemergence, 31 g ai/ha, scale of 0 to 100, 0 is no effect, 100 is complete control
[18] = Preemergence, 62 g ai/ha, scale 0 to 100, 0 no effect, 100 complete control
[19] = Preemergence, 125 g ai/ha, scale 0 to 100, 0 no effect, 100 complete control
[20] = Preemergence, 250 g ai/ha, scale 0 to 100, 0 no effect, 100 complete control
[21] = Preemergence, 62 g ai/ha, scale of 0 to 100, 0 is no effect, 100 is complete control
[22] = 31 g ai/ha, scale 0 to 100 (0 no effect, 100 complete control)
[23] = 62 g ai/ha, scale 0 to 100 (0 no effect, 100 complete control)
[24] = 125 g ai/ha, scale 0 to 100, 0 no effect, 100 complete control
[25] = Postemergence, 125 g ai/ha, 0 to 100 scale, 0 is no effect, 100 is complete control
[26] = Postemergence, 500 g ai/ha, visual rating on 0 to 100 scale (0 no effect, 100 complete control), approximately ten days
[27] = Preemergence, 125 g ai/ha, 0 to 100 scale where 0 is no effect and 100 is complete control
[28] = Preemergence, 500 g ai/ha, 0 to 100 scale (0 no effect, 100 complete control)

Compound: Cc1nn(-c2ccc(F)cc2F)nc1Cc1ccnc(C(F)(F)F)c1 [Compound 54, 4-[[2-(2,4-difluorophenyl)-5-methyl-2H-1,2,3-triazol-4-yl]methyl]-2-(trifluoromethyl)pyridine]
- plant injury at 125 g/ha ([1]; Zea mays, post-emergence, 240 h, Postemergence, 125 g ai/ha, 0 to 100 scale, 0 is no effect, 100 is complete control, read-out: Corn plant response rating): 30%
- plant injury at 500 g/ha ([1]; Zea mays, post-emergence, 240 h, Postemergence, 500 g ai/ha, visual rating on 0 to 100 scale (0 no effect, 100 complete control), approximately ten days, read-out: Corn plant response rating): 60%
- Corn plant response rating (crop injury, 0 = no effect, 100 = complete kill) at 125 g/ha ([1]; Zea mays, pre-emergence, 240 h, Preemergence, 125 g ai/ha, 0 to 100 scale (0 no effect, 100 complete control)): 10%
- Corn plant response rating (crop injury, 0 = no effect, 100 = complete kill) at 500 g/ha ([1]; Zea mays, pre-emergence, 240 h, Preemergence, 500 g ai/ha, 0 to 100 scale, 0 is no effect, 100 is complete control): 40%
- Plant response rating, Rice (0 to 100 scale, 0 is no effect, 100 is complete control) [2]: 30
- pest or weed control at 125 g/ha ([3]; post-emergence, Postemergence, 125 g ai/ha, 0 to 100 scale, 0 is no effect, 100 is complete control, read-out: Velvetleaf plant response rating): 90%
- pest or weed control at 500 g/ha ([3]; post-emergence, Postemergence, 500 g ai/ha, visual rating on 0 to 100 scale (0 no effect, 100 complete control), approximately ten days, read-out: Velvetleaf plant response rating): 100%
- pest or weed control at 125 g/ha ([3]; pre-emergence, Preemergence, 125 g ai/ha, 0 to 100 scale (0 no effect, 100 complete control), read-out: Plant response rating, Velvetleaf): 30%
- pest or weed control at 500 g/ha ([3]; pre-emergence, Preemergence, 500 g ai/ha, 0 to 100 scale, 0 is no effect, 100 is complete control, read-out: Plant response rating, Velvetleaf): 60%
- pest or weed control at 125 g/ha ([4]; post-emergence, Postemergence, 125 g ai/ha, 0 to 100 scale, 0 is no effect, 100 is complete control, read-out: Barnyardgrass plant response rating): 70%
- pest or weed control at 500 g/ha ([4]; post-emergence, Postemergence, 500 g ai/ha, visual rating on 0 to 100 scale (0 no effect, 100 complete control), approximately ten days, read-out: Barnyardgrass plant response rating): 90%
- pest or weed control at 125 g/ha ([4]; pre-emergence, Preemergence, 125 g ai/ha, 0 to 100 scale (0 no effect, 100 complete control), read-out: Plant response rating, Barnyardgrass): 80%
- pest or weed control at 500 g/ha ([4]; pre-emergence, Preemergence, 500 g ai/ha, 0 to 100 scale, 0 is no effect, 100 is complete control, read-out: Plant response rating, Barnyardgrass): 100%

Compound: Cc1nn(-c2ccc(C(F)(F)F)cn2)nc1Cc1cccc(C(F)(F)F)c1 [Compound 106]
- Corn plant response rating [1, 11]: 10
- Corn plant response rating [1, 12]: 10
- Plant response rating, Blackgrass [5, 13]: 30
- Plant response rating, Blackgrass [5, 14]: 40
- Plant response rating, Blackgrass [5, 15]: 45
- Plant response rating, Blackgrass [5, 16]: 60
- Plant response rating, Blackgrass [5, 17]: 50
- Plant response rating, Blackgrass [5, 18]: 50
- Plant response rating, Blackgrass [5, 19]: 90
- Plant response rating, Blackgrass [5, 20]: 95
- Plant response rating, Pigweed [6, 13]: 95
- Plant response rating, Pigweed [6, 14]: 98
- Plant response rating, Pigweed [6, 15]: 98
- Plant response rating, Pigweed [6, 16]: 98
- Plant response rating, Pigweed [6, 17]: 85
- Plant response rating, Pigweed [6, 21]: 98
- Plant response rating, Pigweed [6, 19]: 100
- Plant response rating, Pigweed [6, 20]: 100
- Plant response rating, Oat, Wild [7, 13]: 10
- Plant response rating, Oat, Wild [7, 14]: 30
- Plant response rating, Oat, Wild [7, 15]: 45
- Plant response rating, Oat, Wild [7, 16]: 45
- Plant response rating, Oat, Wild [7, 17]: 10
- Plant response rating, Oat, Wild [7, 21]: 45
- Plant response rating, Oat, Wild [7, 19]: 70
- Plant response rating, Oat, Wild [7, 20]: 80
- Plant response rating, Johnsongrass [8, 13]: 0
- Plant response rating, Johnsongrass [8, 14]: 15
- Plant response rating, Johnsongrass [8, 15]: 40
- Plant response rating, Johnsongrass [8, 16]: 55
- Plant response rating, Johnsongrass [8, 17]: 0
- Plant response rating, Johnsongrass [8, 21]: 20
- Plant response rating, Johnsongrass [8, 19]: 75
- Plant response rating, Johnsongrass [8, 20]: 85
- Velvetleaf plant response rating [3, 11]: 70
- Velvetleaf plant response rating [3, 12]: 0
- Barnyardgrass plant response rating [4, 11]: 40
- Barnyardgrass plant response rating [4, 12]: 50
- Plant response rating, Chickweed [9, 22]: 60
- Plant response rating, Chickweed [9, 23]: 70
- Plant response rating, Chickweed [9, 24]: 95
- Plant response rating, Chickweed ([9]; 250 g ai/ha, scale 0 to 100): 98
- Plant response rating, Wheat [10, 13]: 10
- Plant response rating, Wheat [10, 14]: 30
- Plant response rating, Wheat [10, 15]: 30
- Plant response rating, Wheat [10, 17]: 0
- Plant response rating, Wheat [10, 21]: 0
- Plant response rating, Wheat [10, 19]: 0
- Plant response rating, Wheat [10, 20]: 5

Compound: Cc1nn(-c2ccc(C(F)(F)F)cc2)nc1Oc1ccnc(C(F)(F)F)c1 [Compound 120]
- Corn plant response rating [1, 25]: 20
- Corn plant response rating [1, 26]: 50
- Plant response rating, Corn [1, 27]: 20
- Plant response rating, Corn [1, 28]: 30
- Plant response rating, Blackgrass [5, 13]: 25
- Plant response rating, Blackgrass [5, 14]: 30
- Plant response rating, Blackgrass [5, 15]: 60
- Plant response rating, Blackgrass [5, 16]: 85
- Plant response rating, Blackgrass [5, 17]: 90
- Plant response rating, Blackgrass [5, 18]: 90
- Plant response rating, Blackgrass [5, 19]: 90
- Plant response rating, Blackgrass [5, 20]: 90
- Plant response rating, Pigweed [6, 13]: 95
- Plant response rating, Pigweed [6, 14]: 98
- Plant response rating, Pigweed [6, 15]: 98
- Plant response rating, Pigweed [6, 16]: 100
- Plant response rating, Pigweed [6, 17]: 100
- Plant response rating, Pigweed [6, 21]: 100
- Plant response rating, Pigweed [6, 19]: 100
- Plant response rating, Pigweed [6, 20]: 100
- Plant response rating, Oat, Wild [7, 13]: 55
- Plant response rating, Oat, Wild [7, 14]: 60
- Plant response rating, Oat, Wild [7, 15]: 80
- Plant response rating, Oat, Wild [7, 16]: 90
- Plant response rating, Oat, Wild [7, 17]: 85
- Plant response rating, Oat, Wild [7, 21]: 90
- Plant response rating, Oat, Wild [7, 19]: 95
- Plant response rating, Oat, Wild [7, 20]: 95
- Plant response rating, Johnsongrass [8, 13]: 0
- Plant response rating, Johnsongrass [8, 14]: 5
- Plant response rating, Johnsongrass [8, 15]: 25
- Plant response rating, Johnsongrass [8, 16]: 45
- Plant response rating, Johnsongrass [8, 17]: 25
- Plant response rating, Johnsongrass [8, 21]: 80
- Plant response rating, Johnsongrass [8, 19]: 95
- Plant response rating, Johnsongrass [8, 20]: 98
- Velvetleaf plant response rating [3, 25]: 50
- Velvetleaf plant response rating [3, 26]: 80
- Plant response rating, Velvetleaf [3, 27]: 40
- Plant response rating, Velvetleaf [3, 28]: 70
- Barnyardgrass plant response rating [4, 25]: 60
- Barnyardgrass plant response rating [4, 26]: 80
- Plant response rating, Barnyardgrass [4, 27]: 90
- Plant response rating, Barnyardgrass [4, 28]: 100
- Plant response rating, Chickweed [9, 22]: 75
- Plant response rating, Chickweed [9, 23]: 100
- Plant response rating, Chickweed [9, 24]: 100
- Plant response rating, Chickweed ([9]; 250 g ai/ha, scale 0 to 100): 100
- Plant response rating, Wheat [10, 13]: 10
- Plant response rating, Wheat [10, 14]: 10
- Plant response rating, Wheat [10, 15]: 35
- Plant response rating, Wheat [10, 16]: 35
- Plant response rating, Wheat [10, 17]: 5
- Plant response rating, Wheat [10, 21]: 25
- Plant response rating, Wheat [10, 19]: 40
- Plant response rating, Wheat [10, 20]: 50
